“And” between values parts separate entries of the source, which are not always exact repeats. Identical values can stand only once.
Test system: 935938-334-R-J1-PDC complex spheroid viability
Experiment: Anticancer human tumor 935938-334-R-J1-PDC patient-derived small intestine adenocarcinoma cell line growth inhibition [POLQ]
Conditions: for viability, T/C: stronger effect = lower value
Method: Multicellular complex tumor spheroid response to Polymerase (POL) inhibitors (novobiocin, ART-558, RP6685) in combination with a variety of drugs and investigational agents in selected tumor cell lines
The POL inhibitors (novobiocin, ART-558, and RP6685) were evaluated both individually and in combination with standard of care and investigational anticancer small molecules within a complex spheroid model of solid tumors. . Complex spheroids include a stromal component modeled by human endothelial cells (HUVEC) and fibroblasts modeled by human mesenchymal stem cells (MSCs). The concentration ranges selected for each drug and investigational agent were based upon clinically achievable concentrations if the clinical Cmax of the agent was known.
Compounds. The drugs and investigational agents: novobiocin (NSC847541), ART-558 (NSC835418), RP-6685 (NSC848927), peposertib (NSC802822), ceralasertib (NSC780249), elimusertib (NSC800525), camonsertib (NSC841442), AZD-1390 (NSC803789), olaparib (NSC753686), talazoparib (NSC767125), rucaparib (NSC756644), sotorasib (NSC818433), MRTX-1133 (NSC836407), SN-38 (NSC673596), topotecan (NSC609699), epotoside (NSC141540), doxorubicin (NSC123127), gemcitabine (NSC613327), 5-fluorouracil (NSC19893), paclitaxel (NSC125973), vemurafenib (NSC761431), MSA-2 (NSC828583), SN-011 (NSC837082), adavosertib (NSC754352), prexasertib (NSC758257), carboplatin (NSC241240) and oxaliplatin (NSC266046), were obtained from the National Cancer Institute (NCI) Developmental Therapeutics Program Chemical Repository (21). The FDA-approved anticancer drug set is available from the Developmental Therapeutics Program at https://dtp.cancer.gov/organization/dscb/obtaining/. […] The stock solutions were prepared in dimethyl sulfoxide (DMSO, Sigma-Aldrich, St. Louis, MO, cat. D2650), except for the platinum compounds which were prepared in saline (Quality Biological, Gaithersburg, MD, cat. 114-055-101), at 800-fold the tested concentration and stored at -70 degrees C prior to their use. All drugs and investigational agents were tested over a range starting from a high concentration at or near the clinical Cmax and decreasing in half-log increments. If the clinical Cmax for an agent had not been determined, the highest concentration tested was 10 microM, except for SN-38, which was tested at a high concentration of 1 microM.
Cell Culture. All cells were maintained in an incubator at 37 degrees C and 5% CO2 with 95% humidity. The PDC lines were cultured according to standard operating procedures established by the NCI PDMR (https://pdmr.cancer.gov). Table 3 of the manuscript, lists the cell lines along with the number of the three cell types plated to form the mct-spheroids and media for tumor cell growth. After thawing, all PDC lines, except 997537-175-T-J1-PDC and 415267-285-R-J2-PDC, were cultured in Matrigel-coated flasks prepared with a working solution of 1X Ham's F-12 nutrient mix, without supplementation (Thermo Fisher Scientific, cat. 11765054), 100 U/mL penicillin-streptomycin (Thermo Fisher Scientific, cat. 15140122), and 2.5% Matrigel (Corning Inc., Corning, NY, cat. 354248) for the first three passages. The two PDC lines 997537-175-T-J1-PDC and 415267-285-R-J2-PDC were cultured on uncoated flasks. The 857933-349-R-J2-PDC line was cultured in 6C/Colon 1B media containing advanced DMEM/F-12 (Thermo Fisher Scientific, cat. 12634028), 10 mM HEPES (Thermo Fisher Scientific, cat. 15630080), 1X GlutaMAX supplement (Thermo Fisher Scientific, cat. 35050061), 0.1 mg/mL primocin (InvivoGen, San Diego, CA, cat. ant-pm-2), 10% defined fetal bovine serum, heat inactivated (HyClone Laboratories Inc., Logan, UT, cat. SH30070.03HI), 50% L-WRN conditioned media (ATCC, cat. CRL-3276), 1.25 mM N-Acetyl-L-cysteine (Sigma-Aldrich, cat. A9165), 10 mM nicotinamide (Sigma-Aldrich, cat. N0636), 1X B-27 supplement (Thermo Fisher Scientific, cat. 17504044), 1X N-2 supplement (Thermo Fisher Scientific, cat. […]
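Further: spheroids exposed to drugs for seven days before viability read.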
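Wherever viability, T/C is given: 100% = DMSO vehicle control wells.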

`O=C(Nc1ccc(O)c(NS(=O)(=O)c2ccc(F)cc2)c1)c1ccc(-c2ccccc2)cc1` was tested, and the viability, T/C (compound 0.0316 µM) was 105% and 85.8% and 92.8%, the viability, T/C (compound 0.1 µM) was 90.5% and 105% and 85.8% and the viability, T/C (compound 0.316 µM) was 76.6% and 90.5% and 111%. The viability, T/C (compound 1 µM) was 80.5% and 76.2% and 111%, the viability, T/C (compound 3.16 µM) was 103% and 84.1% and 91.1% and the viability, T/C (compound 10 µM) was 93.4% and 63.7% and 69.9%. The IC50 (curve of compound) was greater than 10000 nM.

`CC1COCCN1c1cc(-c2ccnn2C)c2ccnc(-c3ccn[nH]3)c2n1` (stereo unspecified) + COC1C(OC(N)=O)C(O)C(Oc2ccc3c(O)c(NC(=O)c4ccc(O)c(CC=C(C)C)c4)c(=O)oc3c2C)OC1(C)C showed an IC50 (curve of first compound, second compound 0.0316 µM) of 72.7 nM, an IC50 (curve of first compound, second compound 0.1 µM) of 59.2 nM and an IC50 (curve of first compound, second compound 0.316 µM) of 136 nM. For the same molecule, the IC50 (curve of first compound, second compound 1 µM) was 51.2 nM, the IC50 (curve of first compound, second compound 3.16 µM) was 93 nM and the IC50 (curve of first compound, second compound 10 µM) was 80.8 nM. The viability, T/C (second compound 0.0316 µM, first compound 0.0316 µM) was 73.1%, the viability, T/C (second compound 0.0316 µM, first compound 0.1 µM) was 41% and the viability, T/C (second compound 0.0316 µM, first compound 0.316 µM) was 20.7%. The viability, T/C (second compound 0.0316 µM, first compound 1 µM) was 13.7%, the viability, T/C (second compound 0.0316 µM, first compound 3.16 µM) was 13.8% and the viability, T/C (second compound 0.0316 µM, first compound 10 µM) was 16.3%. It also gave a viability, T/C (second compound 0.1 µM, first compound 0.0316 µM) of 66.6%, a viability, T/C (second compound 0.1 µM, first compound 0.1 µM) of 36% and a viability, T/C (second compound 0.1 µM, first compound 0.316 µM) of 20.7%. It also gave a viability, T/C (second compound 0.1 µM, first compound 1 µM) of 14.3%, a viability, T/C (second compound 0.1 µM, first compound 3.16 µM) of 16.4% and a viability, T/C (second compound 0.1 µM, first compound 10 µM) of 19.7%. The viability, T/C (second compound 0.316 µM, first compound 0.0316 µM) was 73.1%, the viability, T/C (second compound 0.316 µM, first compound 0.1 µM) was 61% and the viability, T/C (second compound 0.316 µM, first compound 0.316 µM) was 19.9%. It also gave a viability, T/C (second compound 0.316 µM, first compound 1 µM) of 15%, a viability, T/C (second compound 0.316 µM, first compound 3.16 µM) of 18% and a viability, T/C (second compound 0.316 µM, first compound 10 µM) of 21.3%. The viability, T/C (second compound 1 µM, first compound 0.0316 µM) was 59.7%, the viability, T/C (second compound 1 µM, first compound 0.1 µM) was 36.5% and the viability, T/C (second compound 1 µM, first compound 0.316 µM) was 18.8%. It also gave a viability, T/C (second compound 1 µM, first compound 1 µM) of 14.9%, a viability, T/C (second compound 1 µM, first compound 3.16 µM) of 14.8% and a viability, T/C (second compound 1 µM, first compound 10 µM) of 20.3%. The viability, T/C (second compound 3.16 µM, first compound 0.0316 µM) was 78.9%, the viability, T/C (second compound 3.16 µM, first compound 0.1 µM) was 48% and the viability, T/C (second compound 3.16 µM, first compound 0.316 µM) was 19.4%. For the same molecule, the viability, T/C (second compound 3.16 µM, first compound 1 µM) was 15%, the viability, T/C (second compound 3.16 µM, first compound 3.16 µM) was 18.9% and the viability, T/C (second compound 3.16 µM, first compound 10 µM) was 16.1%. For the same molecule, the viability, T/C (second compound 10 µM, first compound 0.0316 µM) was 74.9%, the viability, T/C (second compound 10 µM, first compound 0.1 µM) was 44.1% and the viability, T/C (second compound 10 µM, first compound 0.316 µM) was 24.4%. It also gave a viability, T/C (second compound 10 µM, first compound 1 µM) of 14.4%, a viability, T/C (second compound 10 µM, first compound 3.16 µM) of 14.7% and a viability, T/C (second compound 10 µM, first compound 10 µM) of 20.7%.

With `Nc1ccc(C#CCN(C(=O)Cc2ncc(C(F)(F)F)cc2C(F)(F)F)c2ccc(F)cc2)nn1` the IC50 (compound alone, run of 12/05/2023) was greater than 10000 nM.

`CCc1cc2c(N3CCc4c(cc(Cn5ccnc5)cc4-c4cn(C)nc4C(F)(F)F)C3=O)ccnc2c(OC)n1` was tested, and the viability, T/C (compound 0.0316 µM) was 78.9% and 69.7% and 64.6%, the viability, T/C (compound 0.1 µM) was 56.2% and 71.7% and 57.9% and the viability, T/C (compound 0.316 µM) was 70.9% and 68.9% and 69.7%. For the same molecule, the viability, T/C (compound 1 µM) was 61.2% and 62% and 60.9%, the viability, T/C (compound 3.16 µM) was 64.3% and 76.9% and 69.6% and the viability, T/C (compound 10 µM) was 57.7% and 50.2% and 58.4%. It also gave an IC50 (curve of compound) greater than 10000 nM.

`COc1ccc([C@@H](O)c2cc(-c3ncnc4cc(N5CCOCC5)ccc34)c(F)cc2Cl)nn1` was tested, and the viability, T/C (compound 0.0316 µM) was 92.9% and 78.8% and 78%, the viability, T/C (compound 0.1 µM) was 81.3% and 85.4% and 74.1% and the viability, T/C (compound 0.316 µM) was 104% and 91.9% and 83.3%. The viability, T/C (compound 1 µM) was 67.2% and 91.9% and 95.6%, the viability, T/C (compound 3.16 µM) was 78% and 69.2% and 62.2% and the viability, T/C (compound 10 µM) was 36.1% and 31.2% and 33.4%. The IC50 (curve of compound) was 6470 nM and 5660 nM and 5150 nM.

With `CC(=O)O[C@H]1C(=O)[C@@]2(C)[C@H]([C@H](OC(=O)c3ccccc3)[C@]3(O)C[C@H](OC(=O)[C@H](O)[C@@H](NC(=O)c4ccccc4)c4ccccc4)C(C)=C1C3(C)C)[C@]1(OC(C)=O)CO[C@@H]1C[C@@H]2O` the viability, T/C (compound 0.00949 µM) was 35.5% and 53.2% and 37.8%, the viability, T/C (compound 0.03 µM) was 18.7% and 20.8% and 19.2% and the viability, T/C (compound 0.0949 µM) was 15.8% and 15.7% and 16%. The viability, T/C (compound 0.3 µM) was 12.4% and 16.4% and 17%, the viability, T/C (compound 0.949 µM) was 14.9% and 15.7% and 13.9% and the viability, T/C (compound 3 µM) was 17.9% and 19.1% and 19.5%. For the same molecule, the IC50 (curve of compound) was < 9.49 nM and 10.6 nM.

From PubChem BioAssay AID1963829 (Molecular Pharmacology Branch, DTP, NCI, 2024)
